ChEMBL document CHEMBL1201862, “PubChem BioAssay data set” (2004)
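Tested at 5 concentrations; 48 h exposure; 96-well plates; endpoints linearly interpolated, else capped at highest concentration. GI50 marks 50% less growth.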 The source made the active and inactive calls. Cut-off read from the data, not from the text of the source: active = GI50 up to about 1.1 µM and inactive = higher.

Key:
Experiment in all cases: NCI tumour cell line growth inhibition, 48 h
SNB-19 = system: SNB-19
M14 = system: M14
COLO 205 = system: COLO 205
SNB-78 = system: SNB-78
HOP-92 = system: HOP-92
786-0 = system: 786-0
A549 = system: A549
ACHN = system: ACHN
RPMI-8226 = system: RPMI-8226
TK-10 = system: TK-10
SK-MEL-5 = system: SK-MEL-5
OVCAR-4 = system: OVCAR-4
HCT-116 = system: HCT-116
OVCAR-3 = system: OVCAR-3
U-251 = system: U-251
BT-549 = system: BT-549
MDA-N = system: MDA-N
T47D = system: T47D
Hs-578T = system: Hs-578T
MDA-MB-231 = system: MDA-MB-231

With `CC1NCCc2c1[nH]c1cc(O)ccc21` (centres undefined) the GI50 (SNB-19) was > 100 µM (inactive), the GI50 (M14) was > 100 µM (inactive) and the GI50 (COLO 205) was > 100 µM (inactive). For the same molecule, the GI50 (SNB-78) was > 100 µM (inactive), the GI50 (HOP-92) was > 100 µM (inactive) and the GI50 (786-0) was > 100 µM (inactive). The GI50 (A549) was > 100 µM (inactive), the GI50 (ACHN) was > 100 µM (inactive) and the GI50 (RPMI-8226) was > 100 µM (inactive). For the same molecule, the GI50 (TK-10) was > 100 µM (inactive), the GI50 (SK-MEL-5) was > 100 µM (inactive) and the GI50 (OVCAR-4) was > 100 µM (inactive). The GI50 (HCT-116) was > 100 µM (inactive) and the GI50 (OVCAR-3) was > 100 µM (inactive).
With `CCOC(=O)C(=C=C=C(c1ccccc1)c1ccccc1)C(=O)OCC` the GI50 (SNB-19) was 21.5 µM (inactive), the GI50 (M14) was 20.6 µM (inactive) and the GI50 (COLO 205) was 16.7 µM (inactive). For the same molecule, the GI50 (SNB-78) was 16.9 µM (inactive), the GI50 (HOP-92) was 15.1 µM (inactive) and the GI50 (U-251) was 17.3 µM (inactive). The GI50 (786-0) was 17.8 µM (inactive), the GI50 (A549) was 25 µM (inactive) and the GI50 (ACHN) was 21.4 µM (inactive). The GI50 (RPMI-8226) was 14.1 µM (inactive), the GI50 (TK-10) was 16 µM (inactive) and the GI50 (SK-MEL-5) was > 10 µM (inactive). The GI50 (OVCAR-4) was 18.3 µM (inactive), the GI50 (HCT-116) was 18.5 µM (inactive) and the GI50 (OVCAR-3) was 15.5 µM (inactive).
With `FC(F)(F)C1(Cl)C(Cl)(c2ccccc2)C1(Cl)c1ccccc1` (centres undefined) the GI50 (SNB-19) was 18.5 µM (inactive), the GI50 (M14) was 16.4 µM (inactive) and the GI50 (COLO 205) was 19.2 µM (inactive). The GI50 (SNB-78) was 17.8 µM (inactive), the GI50 (HOP-92) was 12.3 µM (inactive) and the GI50 (U-251) was 14.7 µM (inactive). The GI50 (786-0) was 15.8 µM (inactive), the GI50 (A549) was 14.7 µM (inactive) and the GI50 (ACHN) was 16.1 µM (inactive). For the same molecule, the GI50 (RPMI-8226) was 27.7 µM (inactive), the GI50 (TK-10) was 18.6 µM (inactive) and the GI50 (SK-MEL-5) was 14 µM (inactive). For the same molecule, the GI50 (OVCAR-4) was 14.2 µM (inactive), the GI50 (HCT-116) was 11.9 µM (inactive) and the GI50 (OVCAR-3) was 14.9 µM (inactive).
`O=C1OC(c2cccc(C(F)(F)F)c2)(c2cccc(C(F)(F)F)c2)c2ccc3ccccc3c21` was tested, and the GI50 (SNB-19) was 11.2 µM (inactive), the GI50 (M14) was > 10 µM (inactive) and the GI50 (COLO 205) was > 10 µM (inactive). The GI50 (SNB-78) was > 10 µM (inactive), the GI50 (HOP-92) was 28.8 µM (inactive) and the GI50 (U-251) was 8.39 µM (inactive). The GI50 (786-0) was > 10 µM (inactive), the GI50 (A549) was > 10 µM (inactive) and the GI50 (ACHN) was 3.64 µM (inactive). For the same molecule, the GI50 (RPMI-8226) was 4.24 µM (inactive), the GI50 (TK-10) was > 10 µM (inactive) and the GI50 (SK-MEL-5) was 4.59 µM (inactive). The GI50 (OVCAR-4) was > 10 µM (inactive), the GI50 (HCT-116) was 8.45 µM (inactive) and the GI50 (OVCAR-3) was 4.23 µM (inactive).
In the case of `COc1cc(OC)c(OC)cc1/C=C\c1ccnc2ccccc12`, the GI50 (BT-549) is reported as 0.412 µM (active), the GI50 (SNB-19) is reported as 1.01 µM (active) and the GI50 (M14) is reported as 0.574 µM (active). For the same molecule, the GI50 (COLO 205) was 0.463 µM (active), the GI50 (MDA-N) was 0.185 µM (active) and the GI50 (SNB-78) was 1.2 µM (inactive). For the same molecule, the GI50 (HOP-92) was 1.21 µM (inactive), the GI50 (U-251) was 0.628 µM (active) and the GI50 (786-0) was 0.687 µM (active). The GI50 (T47D) was 0.771 µM (active), the GI50 (A549) was 0.849 µM (active) and the GI50 (ACHN) was 1.29 µM (inactive). For the same molecule, the GI50 (RPMI-8226) was 0.577 µM (active), the GI50 (Hs-578T) was 0.252 µM (active) and the GI50 (TK-10) was 2.17 µM (inactive). For the same molecule, the GI50 (SK-MEL-5) was 0.414 µM (active), the GI50 (OVCAR-4) was 4.51 µM (inactive) and the GI50 (HCT-116) was 0.574 µM (active). The GI50 (OVCAR-3) was 0.387 µM (active) and the GI50 (MDA-MB-231) was 0.796 µM (active).
